Results from PubChem BioAssay (NCI).
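Five concentrations, 48 hours, 96-well plates. TGI: concentration producing complete growth inhibition.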 Where a SMILES comes first, the peptide text is derived from it. [ ]: non-standard residue; d: D form. The star is where a group is joined. NMeF = CN[CH](Cc1ccccc1)C(=O)O; NMeV = CN[CH](C(=O)O)C(C)C; Boc = CC(C)(C)OC(=O)*

Legend:
Experiment in all cases: inhibition of tumour cell growth, NCI panel, 48 h
SNB-78 CNS = system: SNB-78 CNS
DMS 273 small cell lung = system: DMS 273 small cell lung
SNB-19 CNS = system: SNB-19 CNS
NCI-H460 lung = system: NCI-H460 lung
SN12C renal = system: SN12C renal
SK-MEL-2 melanoma = system: SK-MEL-2 melanoma
TK-10 renal = system: TK-10 renal
A549 NSCLC = system: A549 NSCLC
KM20L2 colon = system: KM20L2 colon
SF-268 CNS = system: SF-268 CNS
CAKI-1 renal = system: CAKI-1 renal
OVCAR-8 ovarian = system: OVCAR-8 ovarian
HOP-18 NSCLC = system: HOP-18 NSCLC
LOX IMVI melanoma = system: LOX IMVI melanoma
KM12 colon = system: KM12 colon
SF-539 CNS = system: SF-539 CNS
IGROV1 ovarian = system: IGROV1 ovarian
HCT-116 colon = system: HCT-116 colon
OVCAR-4 ovarian = system: OVCAR-4 ovarian
HL-60(TB) leukemia = system: HL-60(TB) leukemia
M19-MEL melanoma = system: M19-MEL melanoma
ACHN renal = system: ACHN renal
SK-OV-3 ovarian = system: SK-OV-3 ovarian
HOP-92 NSCLC = system: HOP-92 NSCLC
DMS 114 small cell lung = system: DMS 114 small cell lung
OVCAR-3 ovarian = system: OVCAR-3 ovarian
SW-620 colon = system: SW-620 colon
HOP-62 NSCLC = system: HOP-62 NSCLC
OVCAR-5 ovarian = system: OVCAR-5 ovarian
NCI-H23 lung = system: NCI-H23 lung
A498 renal = system: A498 renal
RXF 393 renal = system: RXF 393 renal
U251 CNS = system: U251 CNS
RPMI-8226 leukemia = system: RPMI-8226 leukemia
SNB-75 CNS = system: SNB-75 CNS
HT29 colon = system: HT29 colon
MALME-3M melanoma = system: MALME-3M melanoma
NCI-H226 lung = system: NCI-H226 lung
M14 melanoma = system: M14 melanoma
K-562 leukemia = system: K-562 leukemia
786-0 renal = system: 786-0 renal
MOLT-4 leukemia = system: MOLT-4 leukemia
UO-31 renal = system: UO-31 renal
SF-295 CNS = system: SF-295 CNS
SK-MEL-5 melanoma = system: SK-MEL-5 melanoma
HCT-15 colon = system: HCT-15 colon
UACC-257 melanoma = system: UACC-257 melanoma
UACC-62 melanoma = system: UACC-62 melanoma
DLD-1 colon = system: DLD-1 colon
COLO 205 colon = system: COLO 205 colon
LXFL 529 NSCLC = system: LXFL 529 NSCLC
NCI-H522 lung = system: NCI-H522 lung
SK-MEL-28 melanoma = system: SK-MEL-28 melanoma
CCRF-CEM leukemia = system: CCRF-CEM leukemia
HCC-2998 colon = system: HCC-2998 colon
EKVX NSCLC = system: EKVX NSCLC
SR leukemia = system: SR leukemia
XF 498 CNS = system: XF 498 CNS

CC12CCC3(C1)[C@H](CC2=O)C[C@@H](OC(=O)c1ccccc1)C1C(C)(CO)CCC[C@@]13C (stereo partly drawn)
TGI (SNB-78 CNS): > 100 µM
TGI (DMS 273 small cell lung): 13.3 µM
TGI (SNB-19 CNS): > 100 µM
TGI (NCI-H460 lung): > 45.8 µM
TGI (SN12C renal): > 100 µM
TGI (SK-MEL-2 melanoma): > 90.8 µM
TGI (TK-10 renal): > 100 µM
TGI (A549 NSCLC): 97 µM
TGI (KM20L2 colon): > 100 µM
TGI (SF-268 CNS): > 100 µM
TGI (CAKI-1 renal): > 27.2 µM
TGI (OVCAR-8 ovarian): > 100 µM
TGI (HOP-18 NSCLC): > 100 µM
TGI (LOX IMVI melanoma): > 100 µM
TGI (KM12 colon): > 100 µM
TGI (SF-539 CNS): > 100 µM
TGI (IGROV1 ovarian): > 100 µM
TGI (HCT-116 colon): > 100 µM
TGI (OVCAR-4 ovarian): > 72.1 µM
TGI (HL-60(TB) leukemia): 8.38 µM
TGI (M19-MEL melanoma): > 100 µM
TGI (ACHN renal): > 100 µM
TGI (SK-OV-3 ovarian): > 89.1 µM
TGI (HOP-92 NSCLC): 58.3 µM
TGI (DMS 114 small cell lung): 19.5 µM
TGI (OVCAR-3 ovarian): > 52.3 µM
TGI (SW-620 colon): > 100 µM
TGI (HOP-62 NSCLC): > 100 µM
TGI (OVCAR-5 ovarian): 95.7 µM
TGI (NCI-H23 lung): > 100 µM
TGI (A498 renal): > 100 µM
TGI (RXF 393 renal): 47.6 µM
TGI (U251 CNS): > 100 µM
TGI (RPMI-8226 leukemia): 12 µM
TGI (SNB-75 CNS): > 100 µM
TGI (HT29 colon): > 100 µM
TGI (MALME-3M melanoma): > 100 µM
TGI (NCI-H226 lung): 65.9 µM
TGI (M14 melanoma): > 100 µM
TGI (K-562 leukemia): > 100 µM
TGI (786-0 renal): > 100 µM
TGI (MOLT-4 leukemia): 19.7 µM
TGI (UO-31 renal): 61.7 µM
TGI (SF-295 CNS): > 38.9 µM
TGI (SK-MEL-5 melanoma): 1.71 µM
TGI (HCT-15 colon): > 100 µM
TGI (UACC-257 melanoma): 23.8 µM
TGI (UACC-62 melanoma): > 89 µM
TGI (DLD-1 colon): > 100 µM
TGI (COLO 205 colon): 27.1 µM
TGI (LXFL 529 NSCLC): > 100 µM
TGI (NCI-H522 lung): 17.9 µM
TGI (SK-MEL-28 melanoma): > 100 µM
TGI (CCRF-CEM leukemia): > 54.1 µM
TGI (HCC-2998 colon): > 100 µM
TGI (EKVX NSCLC): > 100 µM

CC(C)C(NC(=O)OC(C)(C)C)C(=O)N(C)C(Cc1ccccc1)C(=O)N(C)C(C(=O)N(C)C(C(=O)O)C(C)C)C(C)C (stereo not drawn) (Boc-V[NMeF][NMeV][NMeV]-OH; configuration not given here)
TGI (DMS 273 small cell lung): > 100 µM
TGI (SNB-19 CNS): > 100 µM
TGI (NCI-H460 lung): > 100 µM
TGI (SN12C renal): > 100 µM
TGI (TK-10 renal): > 100 µM
TGI (A549 NSCLC): > 100 µM
TGI (KM20L2 colon): > 100 µM
TGI (SF-268 CNS): > 100 µM
TGI (OVCAR-8 ovarian): > 100 µM
TGI (LOX IMVI melanoma): > 100 µM
TGI (KM12 colon): > 100 µM
TGI (SF-539 CNS): > 100 µM
TGI (IGROV1 ovarian): > 100 µM
TGI (HCT-116 colon): > 100 µM
TGI (HL-60(TB) leukemia): > 100 µM
TGI (M19-MEL melanoma): > 100 µM
TGI (ACHN renal): > 100 µM
TGI (DMS 114 small cell lung): > 100 µM
TGI (OVCAR-3 ovarian): > 100 µM
TGI (SW-620 colon): > 100 µM
TGI (HOP-62 NSCLC): > 100 µM
TGI (NCI-H23 lung): > 100 µM
TGI (RXF 393 renal): > 100 µM
TGI (U251 CNS): > 100 µM
TGI (RPMI-8226 leukemia): > 100 µM
TGI (HT29 colon): > 100 µM
TGI (MALME-3M melanoma): > 100 µM
TGI (NCI-H226 lung): > 100 µM
TGI (M14 melanoma): > 100 µM
TGI (K-562 leukemia): > 100 µM
TGI (786-0 renal): > 100 µM
TGI (SR leukemia): > 100 µM
TGI (MOLT-4 leukemia): > 100 µM
TGI (UO-31 renal): > 100 µM
TGI (SF-295 CNS): > 100 µM
TGI (SK-MEL-5 melanoma): > 100 µM
TGI (HCT-15 colon): > 100 µM
TGI (UACC-257 melanoma): > 100 µM
TGI (UACC-62 melanoma): > 100 µM
TGI (COLO 205 colon): > 100 µM
TGI (LXFL 529 NSCLC): > 100 µM
TGI (NCI-H522 lung): > 100 µM
TGI (SK-MEL-28 melanoma): > 100 µM
TGI (CCRF-CEM leukemia): > 100 µM
TGI (HCC-2998 colon): > 100 µM
TGI (EKVX NSCLC): > 100 µM
TGI (XF 498 CNS): > 100 µM

O=C1C=C(Nc2ccccc2C(=O)c2ccccc2)c2ccccc2C1=O
TGI (SNB-78 CNS): > 100 µM
TGI (DMS 273 small cell lung): > 100 µM
TGI (SNB-19 CNS): > 100 µM
TGI (NCI-H460 lung): > 100 µM
TGI (SN12C renal): > 100 µM
TGI (SK-MEL-2 melanoma): > 100 µM
TGI (A549 NSCLC): > 100 µM
TGI (KM20L2 colon): > 100 µM
TGI (SF-268 CNS): > 100 µM
TGI (CAKI-1 renal): > 100 µM
TGI (OVCAR-8 ovarian): > 100 µM
TGI (HOP-18 NSCLC): > 100 µM
TGI (KM12 colon): > 100 µM
TGI (SF-539 CNS): > 100 µM
TGI (IGROV1 ovarian): > 100 µM
TGI (HCT-116 colon): > 100 µM
TGI (OVCAR-4 ovarian): > 100 µM
TGI (M19-MEL melanoma): 33.2 µM
TGI (ACHN renal): > 100 µM
TGI (SK-OV-3 ovarian): > 100 µM
TGI (HOP-92 NSCLC): > 100 µM
TGI (DMS 114 small cell lung): > 100 µM
TGI (OVCAR-3 ovarian): > 100 µM
TGI (SW-620 colon): > 100 µM
TGI (HOP-62 NSCLC): > 100 µM
TGI (OVCAR-5 ovarian): > 100 µM
TGI (NCI-H23 lung): > 100 µM
TGI (A498 renal): > 100 µM
TGI (RXF 393 renal): > 100 µM
TGI (U251 CNS): > 100 µM
TGI (RPMI-8226 leukemia): > 100 µM
TGI (SNB-75 CNS): > 100 µM
TGI (HT29 colon): > 100 µM
TGI (MALME-3M melanoma): > 100 µM
TGI (NCI-H226 lung): > 100 µM
TGI (M14 melanoma): > 100 µM
TGI (786-0 renal): > 100 µM
TGI (SR leukemia): > 100 µM
TGI (UO-31 renal): > 100 µM
TGI (SF-295 CNS): > 100 µM
TGI (HCT-15 colon): > 100 µM
TGI (UACC-257 melanoma): 27.9 µM
TGI (UACC-62 melanoma): > 100 µM
TGI (DLD-1 colon): > 100 µM
TGI (COLO 205 colon): > 100 µM
TGI (LXFL 529 NSCLC): > 100 µM
TGI (NCI-H522 lung): 55.9 µM
TGI (SK-MEL-28 melanoma): > 100 µM
TGI (HCC-2998 colon): > 100 µM
TGI (EKVX NSCLC): > 100 µM
